Experimental data as given in article PMC9458978, “Design, synthesis and biological evaluation of novel biphenylsulfonamide derivatives as selective AT2 receptor antagonists” (Frontiers in Chemistry, 2022).
“Also recorded” adds a separate entry of the source. Like-named read-outs stand apart in the source and are kept apart here.

Legend:
AT1 receptor = target: T1, AT1 receptor (Rattus norvegicus, UniProt P25095); experiment: Rat liver membrane AT1 receptor binding assay ([125I]-Ang II displacement); settings: displacement of [125I]-Ang II, rat liver membranes; means ± SE, triplicate; read-out: Ki (nM) AT1R
T1 construct: Rat liver membranes were prepared according to the method of Dudley et al; from tissue; host or cells: rat liver membranes
Description: The target compounds were evaluated for AT1 receptor binding affinity by displacement of [^125I]-Ang II from the AT1 receptor in rat liver membranes. The radio-iodinated AT2 receptor selective ligand [^125I]-CGP42112 was used to study AT2 receptor binding affinity in HEK-293 cells (HEK293-hAT2R) ([Dudley et al., 1990]; [Whitebread et al., 1991]). All of above methods were widely accepted and used to evaluate the binding activity of AT1 and AT2 receptors.
Rat liver membranes were prepared according to the method of Dudley et al ([Dudley et al., 1990]). After HEK-293 cells were transfected with the AT2 receptor, a lysis buffer was used to separate the cell membrane of HEK-293 cells ([Grieger et al., 2016]), using 27-G Resuspend. The lysis solution was mixed and centrifuged at 12,000 g for 10 min at 4°C. Details are shown in the Supplementary Material.
3. Radioligand binding assay steps
3.1 Rat Liver Membrane AT1 Receptor Binding Assay.
Rat liver membranes were prepared according to the method of Dudley et al[1].
Binding of [125I]-Ang II to membranes was conducted in a final volume of 0.5 mL containing 50 mM Tris-HCl (pH 7.4), 100 mM NaCl, 10 mM MgCl2, 1 mM EDTA, 0.025% bacitracin, 0.2% BSA (bovine serum albumin), liver homogenate corresponding to 5 mg of the original tissue weight, [125I]-Ang II (80000-85 000 cpm, 0.03 nM), and variable concentrations of test substance. Samples were incubated at 25 ℃ for 2 h, and binding was terminated by filtration through Whatman GF/B glass-fiber filter sheets, which had been presoaked overnight with 0.3 % polyethylamine, using a Brandel cell harvester. The filterswere washed with 3×3 mL of Tris-HCl (pH 7.4) and transferred to tubes. The radioactivity was measured in a γ-counter. The characteristics of the Ang II binding AT1receptor was determined by using six different concentrations (0.03-5 nmol/L) of the labeled [125I]-Ang II.
Nonspecific binding was determined in the presence of 1 µM Ang II.The specific binding was determined by subtracting the nonspecific binding from the total bound [125I]-Ang II.The apparent dissociation constant Ki values were calculated from IC50 values using the Cheng-Prusoff equation. […]
(§1) one-site fit.All determinations were performed in triplicate. […]

AT2 receptor [1] = target: T2, AT2 receptor (Homo sapiens, UniProt P50052); experiment: HEK-293 cell AT2 receptor binding assay ([125I]-CGP42112 displacement, HEK293-hAT2R)
T2 construct: expressed in transfected cells; host or cells: HEK-293
T2 sequence (P50052 1-363): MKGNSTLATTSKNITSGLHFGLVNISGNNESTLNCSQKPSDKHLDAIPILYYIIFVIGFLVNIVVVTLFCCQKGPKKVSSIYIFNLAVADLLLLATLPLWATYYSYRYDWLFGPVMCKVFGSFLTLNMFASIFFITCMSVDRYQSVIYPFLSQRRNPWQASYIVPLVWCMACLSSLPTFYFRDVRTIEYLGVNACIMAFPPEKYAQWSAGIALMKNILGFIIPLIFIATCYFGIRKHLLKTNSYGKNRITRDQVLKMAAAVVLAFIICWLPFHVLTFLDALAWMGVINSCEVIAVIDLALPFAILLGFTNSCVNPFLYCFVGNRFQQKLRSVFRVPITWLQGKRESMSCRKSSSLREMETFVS
Description: All of above methods were widely accepted and used to evaluate the binding activity of AT1 and AT2 receptors.
The lysis solution was mixed and centrifuged at 12,000 g for 10 min at 4°C. Details are shown in the Supplementary Material.
After HEK-293 cells were transfected with AT2 receptor, lysis buffer (150 mM NaCl, 0.1% Triton X-100, 50 mM Tris-HCl, 1 mM EDTA, protease inhibitor) was used to separate the cell membrane of HEK-293 cells[2],using 27-G Resuspend and mix the lysis solution, and centrifuge at 12,000 g for 10 minutes at 4 °C. The supernatant was collected and centrifuged for a further 60 minutes. The precipitated membrane extracts were buffered (150 mM NaCl, 10 mM MgCl2, 0.5 % SDS, 1 % Triton X-100, 50 mM Tris-Cl, 1 mM EDTA, protease inhibitor ) for resuspension. […]
mL containing 50 mM Tris-HCl (pH 7.4), 100 mM NaCl, 10 mM MgCl2, 1 mM […]
cpm, 0.03 nM), and variable concentrations of test substance. Samples were incubated at 25 ℃ for 2 h, and binding was terminated by filtration through Whatman GF/B glass-fiber filter sheets, which had been presoaked overnight with 0.3 % polyethylamine, using a Brandel cell harvester. The filterswere washed with 3×3 mL of Tris-HCl (pH 7.4) and transferred to tubes. The radioactivity was measured in a γ-counter. The characteristics of the Ang II binding AT1 receptor was determined by […]
Nonspecific binding was determined in the presence of 1 µM Ang II.The specific binding was determined by subtracting the nonspecific binding from the total bound The apparent dissociation constant Ki values were calculated from IC50 values using the Cheng-Prusoff equation. […]
as §1

AT2 receptor [2] = experiment: Neurite outgrowth assay with NG108-15 cells (AT2 receptor function assay)
Description: The ratio of cell neurite outgrowth was used to evaluate, and the details are shown in the Supplementary Material.
NG108-15 cells (China Center for Type Culture Collection CCTCC) were used to study the in vitro morphological effects. In their undifferentiated state, neuroblastoma × glioma hybrid NG108-15 cells havea rounded shape and divide actively. The cells were cultured from passage 18–25 in Dulbecco’s modified Eagle’s medium (DMEM, Gibco BRL, Thermo Fisher Technology (China) Co., Ltd, China) with 10% fetal bovine serum (FBS, Gibco), HAT supplement and 50 mg L^−1 gentamycin at 37°C in 75 cm^2 Nunclon Delta flasks in a humidified atmosphere of 95% air and 5% CO2, as previously described ([Buisson et al., 1992]). Subcultures were performed at subconfluency. Under these conditions, cells express mainly the AT2 receptor subtype ([Whitebread et al., 1991]). Cells were treated during 3 days, once a day (first treatment 24 h after plating), and micrographs were taken on the fourth day. The details of experimental grouping and administration method are shown in the Supplementary Material. […]
4. NG108-15 cell experiment steps […]
peptidic AT2 receptor agonist CGP-42112A induces neurite outgrowth. The […]
plated as described in the Experimental Section, and adequate test concentrations for […]
each compound were determined by testing a dilution series of each compound […]
ranging from 1 pM to 1 uM.
The chemicals used in the present study were obtained from the following sources: Dulbecco’s modified Eagle’s medium (DMEM), heat-inactivated fetal bovine serum (FBS), HAT supplement (hypoxanthine, aminopterin, thymidine), gentamycin from Gibco BRL (Burlington, Ontario, Canada), and Ang II from MedChemExpress

T1 sequence (P25095 whole entry): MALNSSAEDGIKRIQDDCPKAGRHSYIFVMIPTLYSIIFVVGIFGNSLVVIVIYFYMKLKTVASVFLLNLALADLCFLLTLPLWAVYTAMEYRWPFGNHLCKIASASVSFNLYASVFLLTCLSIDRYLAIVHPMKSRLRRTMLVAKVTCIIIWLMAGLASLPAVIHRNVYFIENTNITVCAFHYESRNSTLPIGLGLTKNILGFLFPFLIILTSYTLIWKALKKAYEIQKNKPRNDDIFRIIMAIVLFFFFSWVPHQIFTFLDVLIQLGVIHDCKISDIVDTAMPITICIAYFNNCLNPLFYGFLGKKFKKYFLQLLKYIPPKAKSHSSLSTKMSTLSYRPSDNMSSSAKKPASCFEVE

melting point [°C]	Ki (AT1 receptor) [nM]	Ki (AT2 receptor [1]) [nM]	Ki (AT2 receptor [1]; displacement of [125I]-CGP42112, HEK293-hAT2R membranes, means ± SE, triplicate, read-out: Ki (nM) AT2R) [nM]	Compound	Function (AT2 receptor agonist / antagonist) (AT2 receptor [2]; 3-day treatment, 10 or 100 nM, with or without PD-123,319 (10 uM) or Ang II)	evidence of cell death (AT2 receptor [2]; dilution series 1 pM to 1 uM, seen only at the highest concentration)	morphology compared to untreated cells (AT2 receptor [2]; PD-123,319 alone)	ratio of cell neurite outgrowth (cells with neurites as percentage of total cells) (AT2 receptor [2]; 3-day treatment, substance alone (Ang II 100 nM; compounds 10 or 100 nM)) [%]
125.8 to 126.7	1264 ± 1.14	1152 ± 1.1		CCCCC(=O)NS(=O)(=O)c1ccc(CC(C)C)cc1-c1cccc(Cn2cccn2)c1 [9a, N-((3'-((1H-pyrazol-1-yl)methyl)-5-isobutyl-[1,1′-biphenyl]-2-yl)sulfonyl)pentanamide]				
129.1 to 131.4	989.7 ± 1.08		1027 ± 1.15	CCCCOC(=O)NS(=O)(=O)c1ccc(CC(C)C)cc1-c1cccc(Cn2cccn2)c1 [9b, Butyl((3'-((1H-pyrazol-1-yl)methyl)-5-isobutyl-[1,1′-biphenyl]-2-yl)sulfonyl)carbamate]				
149.6 to 151.3	1027 ± 1.08	916.2 ± 1.3		CC(C)COC(=O)NS(=O)(=O)c1ccc(CC(C)C)cc1-c1cccc(Cn2cccn2)c1 [9c, Isobutyl((3'-((1H-pyrazol-1-yl)methyl)-5-isobutyl-[1,1′-biphenyl]-2-yl)sulfonyl)carbamate]				
146.6 to 147.5	1549 ± 1.11	74.1 ± 1.16		CC(C)Cc1ccc(S(=O)(=O)NC(=O)OC(C)C)c(-c2cccc(Cn3cccn3)c2)c1 [9d, Isopropyl((3'-((1H-pyrazol-1-yl)methyl)-5-isobutyl-[1,1′-biphenyl]-2-yl)sulfonyl)carbamate]				
140.1 to 141.3	363.9 ± 1.28	992.9 ± 1.26		CCCCC(=O)NS(=O)(=O)c1ccc(CCCC)cc1-c1cccc(Cn2cccn2)c1 [9e, N-((3'-((1H-pyrazol-1-yl)methyl)-5-butyl-[1,1′-biphenyl]-2-yl)sulfonyl)pentanamide]				
142.5 to 143.1	1310 ± 1.11	467.9 ± 1.19		CCCCOC(=O)NS(=O)(=O)c1ccc(CCCC)cc1-c1cccc(Cn2cccn2)c1 [9f, Butyl((3'-((1H-pyrazol-1-yl)methyl)-5-butyl-[1,1′-biphenyl]-2-yl)sulfonyl)carbamate]				
149.3 to 151.2	1212 ± 1.12	513.3 ± 1.18		CCCCc1ccc(S(=O)(=O)NC(=O)OCC(C)C)c(-c2cccc(Cn3cccn3)c2)c1 [9g, Isobutyl((3'-((1H-pyrazol-1-yl)methyl)-5-butyl-[1,1′-biphenyl]-2-yl)sulfonyl)carbamate]				

The next lines start with the compound.

Compound	melting point [°C]	Ki (AT1 receptor) [nM]	Ki (AT2 receptor [1]) [nM]	Ki (AT2 receptor [1]; displacement of [125I]-CGP42112, HEK293-hAT2R membranes, means ± SE, triplicate, read-out: Ki (nM) AT2R) [nM]	Function (AT2 receptor agonist / antagonist) (AT2 receptor [2]; 3-day treatment, 10 or 100 nM, with or without PD-123,319 (10 uM) or Ang II)	evidence of cell death (AT2 receptor [2]; dilution series 1 pM to 1 uM, seen only at the highest concentration)	morphology compared to untreated cells (AT2 receptor [2]; PD-123,319 alone)	ratio of cell neurite outgrowth (cells with neurites as percentage of total cells) (AT2 receptor [2]; 3-day treatment, substance alone (Ang II 100 nM; compounds 10 or 100 nM)) [%]
CCCCC(=O)NS(=O)(=O)c1ccc(CC(C)C)cc1-c1cccc(Cn2cncn2)c1 [8a, N-((3'-((1H-1,2,4-triazol-1-yl)methyl)-5-isobutyl-[1,1′-biphenyl]-2-yl)sulfonyl)pentanamide]	138.4 to 139.7	629.4 ± 1.1	873.7 ± 1.1					
CCCCOC(=O)NS(=O)(=O)c1ccc(CC(C)C)cc1-c1cccc(Cn2cncn2)c1 [8b, ((3'-((1H-1,2,4-triazol-1-yl)methyl)-5-isobutyl-[1,1′-biphenyl]-2-yl)sulfonyl)carbamae]	148.1 to 149.3	846.1 ± 1.17	273.5 ± 1.2					
CC(C)COC(=O)NS(=O)(=O)c1ccc(CC(C)C)cc1-c1cccc(Cn2cncn2)c1 [8c, Isobutyl((3'-((1H-1,2,4-triazol-1-yl)methyl)-5-isobutyl-[1,1′-biphenyl]-2-yl)sulfonyl)carbamate]	145.3 to 146.2	1037 ± 1.1	322 ± 1.24					
CC(C)Cc1ccc(S(=O)(=O)NC(=O)OC(C)C)c(-c2cccc(Cn3cncn3)c2)c1 [8d, Isopropyl((3’-((1H-1,2,4-triazol-1-yl)methyl)-5-isobutyl-[1,1′-biphenyl]-2-yl)sulfonyl)carbamate]		1786 ± 1.37	116 ± 1.18		antagonistic activity; also recorded: antagonist activity	evidence of cell death		
CCCCC(=O)NS(=O)(=O)c1ccc(CCCC)cc1-c1cccc(Cn2cncn2)c1 [8e, N-((3'-((1H-1,2,4-triazol-1-yl)methyl)-5-butyl-[1,1′-biphenyl]-2-yl)sulfonyl)pentanamide]	141.8 to 142.4	505.2 ± 1.4	753.9 ± 1.1					
CCCCOC(=O)NS(=O)(=O)c1ccc(CCCC)cc1-c1cccc(Cn2cncn2)c1 [8f, Butyl((3'-((1H-1,2,4-triazol-1-yl)methyl)-5-butyl-[1,1′-biphenyl]-2-yl)sulfonyl)carbamate]	150.1 to 151.4	1425 ± 1.12	252.7 ± 1.2					
CCCCc1ccc(S(=O)(=O)NC(=O)OCC(C)C)c(-c2cccc(Cn3cncn3)c2)c1 [8g, Isobutyl((3'-((1H-1,2,4-triazol-1-yl)methyl)-5-butyl-[1,1′-biphenyl]-2-yl)sulfonyl)carbamate]	168.4 to 169.1	945.5 ± 1.22	347.5 ± 1.36					
Cc1cc(Cn2cnc3c2C[C@@H](C(=O)O)N(C(=O)C(c2ccccc2)c2ccccc2)C3)ccc1N(C)C [PD-123,319, reference compound]							did not alter	
Ang II [reference compound]								~20
